Reference: patent EP4714938A1, “HDAC1/2 SELECTIVE INHIBITOR AND USE THEREOF” (Wigen Biomedicine Technology (Shanghai) Co., Ltd., priority 2023, dated 2024)
Where two headings read alike, the source gives them in different places.

Columns and labels:
[1] = target: HDAC3 (Homo sapiens, UniProt O15379); experiment: HDAC enzyme inhibitory activity, FRET method; format: biochemical; settings: read-out: IC50 HDAC3
Experimental: (§1) The compounds of the present disclosure were assayed for enzyme inhibitory activity against various subtypes of HDAC enzymes by the FRET method. The various subtypes of HDAC enzymes were obtained either through purification or direct purchase of assay kits.
(§2) The specific method was as follows: The enzyme was added to a 384-well plate, and a reaction buffer was added to the control well. Serially diluted DMSO sample solutions were added to the reaction wells, and the plate was incubated at room temperature for 15 min. Then a chromogenic agent was added to stop the reaction, and fluorescence was generated. The fluorescence intensity was measured using an EnVision multi-label microplate reader (excitation: 355 nm, emission: 460 nm). The endpoint value was read after the color development reached stability. The inhibition IC50 of the compounds was calculated using GraphPad Prism4 software relative to DMSO.

[2] = target: HDAC2 (Homo sapiens, UniProt Q92769); experiment: HDAC enzyme inhibitory activity, FRET method; format: biochemical; settings: read-out: IC50 HDAC2
Chain of HDAC2 (Q92769 whole entry, species assumed): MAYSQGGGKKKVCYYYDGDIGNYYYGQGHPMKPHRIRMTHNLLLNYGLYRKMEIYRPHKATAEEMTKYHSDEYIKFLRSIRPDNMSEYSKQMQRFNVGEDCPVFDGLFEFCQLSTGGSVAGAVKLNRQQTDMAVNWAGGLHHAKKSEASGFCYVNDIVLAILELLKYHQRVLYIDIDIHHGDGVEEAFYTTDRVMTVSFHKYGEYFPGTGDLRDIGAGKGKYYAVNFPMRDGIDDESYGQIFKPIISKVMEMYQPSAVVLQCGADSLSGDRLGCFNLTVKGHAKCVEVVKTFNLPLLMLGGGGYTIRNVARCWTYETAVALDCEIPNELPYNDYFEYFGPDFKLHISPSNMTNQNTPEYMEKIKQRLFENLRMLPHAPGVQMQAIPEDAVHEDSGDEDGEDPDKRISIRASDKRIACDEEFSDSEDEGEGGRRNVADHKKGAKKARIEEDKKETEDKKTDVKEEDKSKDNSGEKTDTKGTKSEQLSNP
Experimental: as §1, §2

[3] = target: HDAC1 (Homo sapiens, UniProt Q13547); experiment: HDAC enzyme inhibitory activity, FRET method; format: biochemical; settings: read-out: IC50 HDAC1
Chain of HDAC1 (Q13547 whole entry, species assumed): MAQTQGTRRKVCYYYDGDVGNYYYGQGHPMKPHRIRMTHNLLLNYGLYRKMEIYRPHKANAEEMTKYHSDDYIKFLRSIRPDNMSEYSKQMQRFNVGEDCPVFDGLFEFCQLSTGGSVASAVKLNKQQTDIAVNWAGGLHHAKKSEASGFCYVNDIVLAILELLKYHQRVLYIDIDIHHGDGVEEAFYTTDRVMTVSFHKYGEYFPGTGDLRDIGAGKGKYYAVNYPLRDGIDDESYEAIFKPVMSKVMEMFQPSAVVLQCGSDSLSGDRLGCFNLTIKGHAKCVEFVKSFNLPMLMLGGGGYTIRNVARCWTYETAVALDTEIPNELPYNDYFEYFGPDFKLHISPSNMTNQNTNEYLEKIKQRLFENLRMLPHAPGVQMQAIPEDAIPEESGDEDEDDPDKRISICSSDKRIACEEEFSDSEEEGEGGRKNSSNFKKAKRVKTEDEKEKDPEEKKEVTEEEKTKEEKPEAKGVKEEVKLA
Experimental: as §1, §2

[4] = Stability in liver microsomes; format: in vitro ADME; settings: for half-life at 1 µM: 1 µM compound, 37 °C, NADPH regeneration system
Experimental: After the 1 µM compound was individually incubated at 37 °C for various durations with […] liver microsomes from humans, monkeys, beagles, rats, or mice in the presence of an NADPH regeneration system, LC-MS-MS was used to analyze the remaining amount of the compound, and T1/2 was calculated. Table 10. Evaluation results of stability of compounds of the present disclosure in human and mouse liver microsomes

Chain of HDAC3 (O15379 whole entry, species assumed): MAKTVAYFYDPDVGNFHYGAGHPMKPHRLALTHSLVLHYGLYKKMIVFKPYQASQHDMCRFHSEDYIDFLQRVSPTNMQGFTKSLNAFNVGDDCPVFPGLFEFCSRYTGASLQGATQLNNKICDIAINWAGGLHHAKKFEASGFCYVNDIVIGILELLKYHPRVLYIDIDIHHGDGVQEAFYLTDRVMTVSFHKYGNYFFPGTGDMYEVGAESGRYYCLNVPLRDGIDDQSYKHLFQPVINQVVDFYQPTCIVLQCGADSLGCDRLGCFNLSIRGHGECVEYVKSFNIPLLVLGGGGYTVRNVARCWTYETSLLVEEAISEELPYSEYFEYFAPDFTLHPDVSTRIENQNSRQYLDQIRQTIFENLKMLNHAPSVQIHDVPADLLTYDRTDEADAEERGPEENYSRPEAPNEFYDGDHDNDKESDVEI
Chain of HDAC3 (Q9Y618 395-489 partner limits assumed, species assumed): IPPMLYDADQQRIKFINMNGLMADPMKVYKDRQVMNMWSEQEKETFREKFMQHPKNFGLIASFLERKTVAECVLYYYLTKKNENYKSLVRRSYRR

SMILES	IC50 ([1]; Table 4) [nM]	IC50 ([2]; Table 4) [nM]	IC50 ([3]; Table 4) [nM]	further results
Nc1ccc(-c2ccc(F)cc2)cc1NC(=O)c1ccc(N=S2(=O)CCC(F)(F)CC2)cc1 [Compound 63]				IC50 ([1]; Table 5): > 3000 nM; IC50 ([2]; Table 5): 30 to 300 nM; IC50 ([3]; Table 5): < 30 nM
CS(C)(=O)=Nc1ccc(C(=O)Nc2cc(-c3cccs3)c(F)cc2N)cc1 [Compound 44]	> 5000	< 500	< 500	
CS(C)(=O)=NC1CCC(C(=O)Nc2cc(-c3ccc(F)cc3)ccc2N)CC1 (stereo not drawn) [Compound 45]	> 5000	< 500	< 500	
CS(C)(=O)=Nc1ccc(C(=O)Nc2cc(-c3ccc(C(F)(F)F)cc3)ccc2N)cc1 [Compound 7]	> 5000	< 500	< 500	
CS(C)(=O)=Nc1ccc(C(=O)Nc2cc(-c3ccc(C4CC4)cc3)ccc2N)cc1 [Compound 8]	> 5000	500 to 5000	500 to 5000	
Nc1ccc(-c2ccc(F)cc2)cc1NC(=O)c1ccc(N=S2(=O)CCOCC2)cc1 [Compound 60]				IC50 ([1]; Table 5): > 3000 nM; IC50 ([2]; Table 5): 30 to 300 nM; IC50 ([3]; Table 5): < 30 nM
CS(C)(=O)=Nc1ccc(C(=O)Nc2cc(-c3ccc(F)cc3)c(F)cc2N)cc1 [Compound 43]	> 5000	< 500	< 500	
Nc1ccc(-c2ccc(F)cc2)cc1NC(=O)c1ccc(N=S2(=O)CCC2)cc1 [Compound 53]				IC50 ([1]; Table 5): > 3000 nM; IC50 ([2]; Table 5): 30 to 300 nM; IC50 ([3]; Table 5): < 30 nM
Nc1ccc(-c2ccc(F)cc2)cc1NC(=O)c1ccc(N=S2(=O)CCCC2)cc1 [Compound 57]				IC50 ([1]; Table 5): > 3000 nM; CLint scaled at 1 µM ([4]; Human liver microsomes): 7.51 mL/min/kg; Clliver ([4]; Human liver microsomes): 5.51 mL/min/kg; half-life at 1 µM ([4]; Human liver microsomes): 3.86 h; CLint scaled at 1 µM ([4]; Mouse liver microsomes): 33 mL/min/kg; Clliver ([4]; Mouse liver microsomes): 24.16 mL/min/kg; half-life at 1 µM ([4]; Mouse liver microsomes): 2.75 h; IC50 ([2]; Table 5): 30 to 300 nM; IC50 ([3]; Table 5): < 30 nM
CS(C)(=O)=NC1CCC(C(=O)Nc2cc(-c3ccc(Cl)s3)ccc2N)CC1 (stereo not drawn) [Compound 48]	> 5000	< 500	< 500	
CS(C)(=O)=Nc1ccc(C(=O)Nc2cc(-c3ccc(F)cc3)ccc2O)cc1 [Compound 41]	> 5000	500 to 5000	< 500	
CS(C)(=O)=Nc1ccc(C(=O)Nc2cc(-c3ccccn3)ccc2N)cc1 [Compound 14]	> 5000	< 500	< 500	
Nc1ccc(-c2ccc(F)cc2)cc1NC(=O)c1ccc(N=S2(=O)CC3(CNC3)C2)cc1 [Compound 55]				IC50 ([1]; Table 5): > 3000 nM; IC50 ([2]; Table 5): 30 to 300 nM; IC50 ([3]; Table 5): < 30 nM
CCN1CCS(=O)(=Nc2ccc(C(=O)Nc3cc(-c4ccc(F)cc4)ccc3N)cc2)CC1 [Compound 69]				IC50 ([1]; Table 5): > 3000 nM; IC50 ([2]; Table 5): 30 to 300 nM; IC50 ([3]; Table 5): < 30 nM
CS(C)(=O)=NC1CCC(C(=O)Nc2cc(-c3ccc(F)s3)ccc2N)CC1 (stereo not drawn) [Compound 47]	> 5000	< 500	< 500	
Nc1ccc(-c2ccc(F)cc2)cc1NC(=O)c1ccc(N=S2(=O)CC3(CCC3)C2)cc1 [Compound 54]				IC50 ([1]; Table 5): > 3000 nM; IC50 ([2]; Table 5): 30 to 300 nM; IC50 ([3]; Table 5): < 30 nM
[2H]c1ccc(-c2ccc(N)c(NC(=O)c3ccc(N=S(C)(C)=O)cc3)c2)cc1 [Compound 12]	> 5000	< 500	< 500	
CS(C)(=O)=Nc1ccc(C(=O)Nc2cc(-c3ccc(F)cn3)ccc2N)cc1 [Compound 19]	> 5000	< 500	< 500	

SMILES	IC50 ([1]; Table 4) [nM]	IC50 ([2]; Table 4) [nM]	IC50 ([3]; Table 4) [nM]	further results
CS(C)(=O)=Nc1ccc(C(=O)Nc2cc(-c3ccc(C#N)cc3)ccc2N)cc1 [Compound 4]	> 5000	< 500	< 500	
CS(C)(=O)=Nc1ccc(C(=O)Nc2cc(-c3ncccn3)ccc2N)cc1 [Compound 18]	> 5000	< 500	< 500	
CCS(=O)(CC)=Nc1ccc(C(=O)Nc2cc(-c3ccc(F)cc3)ccc2N)cc1 [Compound 59]				IC50 ([1]; Table 5): > 3000 nM; IC50 ([2]; Table 5): 30 to 300 nM; IC50 ([3]; Table 5): < 30 nM
Nc1ccc(-c2ccc(F)cc2)cc1NC(=O)c1ccc(N=S2(=O)CCCCC2)cc1 [Compound 58]				IC50 ([1]; Table 5): > 3000 nM; IC50 ([2]; Table 5): 30 to 300 nM; IC50 ([3]; Table 5): < 30 nM
CS(C)(=O)=Nc1ccc(C(=O)Nc2cc(-c3cccnc3)ccc2N)cc1 [Compound 15]	> 5000	< 500	< 500	
Nc1ccc(-c2ccc(F)cc2)cc1NC(=O)c1ccc(N=S2(=O)CCC(F)(F)C2)cc1 (stereo not drawn) [Compound 65]				IC50 ([1]; Table 5): > 3000 nM; IC50 ([2]; Table 5): 30 to 300 nM; IC50 ([3]; Table 5): < 30 nM
CS(C)(=O)=Nc1ccc(C(=O)Nc2cc(-c3ccncn3)ccc2N)cc1 [Compound 16]	> 5000	< 500	< 500	
CN1CC2(C1)CS(=O)(=Nc1ccc(C(=O)Nc3cc(-c4ccc(F)cc4)ccc3N)cc1)C2 [Compound 56]				IC50 ([1]; Table 5): > 3000 nM; IC50 ([2]; Table 5): 30 to 300 nM; IC50 ([3]; Table 5): < 30 nM
CS(C)(=O)=Nc1ccc(C(=O)Nc2cc(-c3ccccc3)ccc2N)cc1 [Compound 2]	> 5000	< 500	< 500	
CS(C)(=O)=Nc1ccc(C(=O)Nc2cc(-c3ccc(F)s3)ccc2O)cc1 [Compound 42]	> 5000	< 500	< 500	
CS(C)(=O)=Nc1ccc(C(=O)Nc2cc(-c3ccncc3)ccc2N)cc1 [Compound 13]	> 5000	< 500	< 500	
CS(C)(=O)=Nc1ccc(C(=O)Nc2cc(-c3cncnc3)ccc2N)cc1 [Compound 17]	> 5000	< 500	< 500	
CS(C)(=O)=Nc1ccc(C(=O)Nc2cc(-c3ccco3)ccc2N)cc1 [Compound 20]	> 5000	< 500	< 500	
COC(=O)c1ccc(-c2ccc(N)c(NC(=O)c3ccc(N=S(C)(C)=O)cc3)c2)cc1 [Compound 5]	> 5000	500 to 5000	< 500	
CS(C)(=O)=Nc1ccc(C(=O)Nc2cc(-c3ccc(F)cc3F)ccc2N)cc1 [Compound 10]	> 5000	< 500	< 500	
CNC(=O)c1ccc(-c2ccc(N)c(NC(=O)c3ccc(N=S(C)(C)=O)cc3)c2)cc1 [Compound 11]	> 5000	< 500	< 500	
CP(C)(=O)c1ccc(-c2ccc(N)c(NC(=O)c3ccc(N=S(C)(C)=O)cc3)c2)cc1 [Compound 6]	> 5000	500 to 5000	500 to 5000	
COc1ccc(-c2ccc(N)c(NC(=O)c3ccc(N=S(C)(C)=O)cc3)c2)cc1 [Compound 9]	> 5000	< 500	< 500	

Second part, led by results:

IC50 ([1]; Table 4) [nM]	IC50 ([2]; Table 4) [nM]	IC50 ([3]; Table 4) [nM]	SMILES	further results
> 5000	< 500	< 500	Cc1nn(C)cc1CN1CCS(=O)(=Nc2ccc(C(=O)Nc3cc(-c4ccc(F)cc4)ccc3N)cc2)CC1 [Compound 73]	IC50 ([1]; Table 5): > 3000 nM; IC50 ([2]; Table 5): 30 to 300 nM; IC50 ([3]; Table 5): < 30 nM
> 5000	< 500	< 500	CN1CC2(C1)CS(=O)(=Nc1ccc(C(=O)Nc3cc(-c4ccc(F)s4)ccc3N)cc1)C2 [Compound 95]	
> 5000	< 500	< 500	CN1CC2(CCS(=O)(=Nc3ccc(C(=O)Nc4cc(-c5cccs5)ccc4N)cc3)CC2)C1 [Compound 91]	
> 5000	< 500	< 500	CN1CC2(C1)CS(=O)(=Nc1ccc(C(=O)Nc3cc(-c4cccs4)ccc3N)cc1)C2 [Compound 79]	
> 5000	< 500	< 500	Nc1ccc(-c2cccs2)cc1NC(=O)c1ccc(N=S2(=O)CCCC2)cc1 [Compound 80]	
> 5000	< 500	< 500	CN1CCS(=O)(=Nc2ccc(C(=O)Nc3cc(-c4cccs4)ccc3N)cc2)CC1 [Compound 89]	
> 5000	< 500	< 500	Nc1ccc(-c2ccc(F)s2)cc1NC(=O)c1ccc(N=S2(=O)CC3(CNC3)C2)cc1 [Compound 94]	
> 5000	< 500	< 500	Nc1ccc(-c2ccc(F)s2)cc1NC(=O)c1ccc(N=S2(=O)CCCC2)cc1 [Compound 96]	
> 5000	< 500	< 500	Nc1ccc(-c2ccc(F)cc2)cc1NC(=O)c1ccc(N=S2(=O)CCN(CC3CC3)CC2)cc1 [Compound 71]	
> 5000	< 500	< 500	CN1CC2(CCS(=O)(=Nc3ccc(C(=O)Nc4cc(-c5ccc(F)cc5)ccc4N)cc3)CC2)C1 [Compound 72]	IC50 ([1]; Table 5): > 3000 nM; IC50 ([2]; Table 5): 30 to 300 nM; IC50 ([3]; Table 5): < 30 nM
> 5000	< 500	< 500	Nc1ccc(-c2ccc(F)s2)cc1NC(=O)c1ccc(N=S2(=O)CCC2)cc1 [Compound 92]	
> 5000	< 500	< 500	[2H]C([2H])([2H])N1CCS(=O)(=Nc2ccc(C(=O)Nc3cc(-c4cccs4)ccc3N)cc2)CC1 [Compound 90]	
> 5000	< 500	< 500	[2H]C([2H])([2H])N1CCS(=O)(=Nc2ccc(C(=O)Nc3cc(-c4ccc(F)cc4)ccc3N)cc2)CC1 [Compound 68]	IC50 ([1]; Table 5): > 3000 nM; IC50 ([2]; Table 5): 30 to 300 nM; IC50 ([3]; Table 5): < 30 nM
> 5000	< 500	< 500	Nc1ccc(-c2ccc(F)s2)cc1NC(=O)c1ccc(N=S2(=O)CC3(CCC3)C2)cc1 [Compound 93]	
